From publication PMC10073729, “Synthesis, radiolabeling, and evaluation of 68Ga-labeled aminoquinoxaline derivative as a potent PFKFB3-targeted PET tracer” (Frontiers in Chemistry, 2023)
Where two headings read alike, the source gives them in different places.

Key:
PFKFB3 = conditions: 2019, cited from earlier work
[1] = test system: F2,6BP production in HCT116 cells; assay: Cellular inhibition assay: F2,6BP production in glucose-starved, restimulated HCT116 cells; assay type: cell-based; conditions: Homo sapiens, HCT-116, 25 mM glucose restimulation 4 h, triplicate
Method: For the cellular inhibition assay, the protocol used in this section was also from the same literature as the PFKFB3 enzymatic activity assay, with minor modifications ([Boutard et al., 2019]). Briefly, glucose-starved HTC116 cells were pretreated with diluted compounds at different concentrations and restimulated with 25 mM glucose for 4 h to trigger glycolytic flux. Cells were then lysed by NaOH ([…]) under 85°C for 10 min and transferred to a HEPES solution (20 mM) neutralized by acetic acid (1 M) to pH 7.5–8.0. The lysates (equal amounts, normalized to protein level) were reacted in a mixture of α-glycerophosphate dehydrogenase (0.17 U), aldolase (0.083 U), pyrophosphate-dependent fructose-6-phosphate kinase from potato (0.17 U) and triosephosphate isomerase (0.83 U) in Tris (pH 8.0), glucose-6-phosphate (17 mM), fructose-6-phosphate (2.5 mM) and magnesium chloride (5.5 mM) in a total volume of 100 µL. The reaction was induced by the addition of NADH (0.14 mM) under 30°C, and the absorbance at 340 nm was measured 30 min post addition. All absorbances for reaction mixtures for test compounds with different concentrations were recorded and used for IC50 calculations in GraphPad Prism 5.0 software.

[2] = molecular target: T1, Human Recombinant PFKFB3 Protein (His and GST Tag) (Homo sapiens, UniProt Q16875); assay: ADP-Glo-based PFKFB3 enzymatic activity inhibition assay; assay type: biochemical; conditions: triplicate
T1 construct: His; GST; purchased SinoBiological
Source text: All regents used in this section were purchased from Sigma, and the Human Recombinant PFKFB3 Protein (His and GST Tag) was purchased from SinoBiological. The ADP-Glo™ Kinase Assay kit was also obtained from Promega.
The PFKFB3 enzymatic activity assay followed an identical procedure used in previously published literature, along with the same regents and materials ([Boutard et al., 2019]).

[3] = representative PFKFB3 inhibitors, Figure 1, ref Boyd et al., 2015, Boutard et al., Wang et al., 2020, read-out: IC50 (PFKBF3)

T1 sequence (Q16875 whole entry): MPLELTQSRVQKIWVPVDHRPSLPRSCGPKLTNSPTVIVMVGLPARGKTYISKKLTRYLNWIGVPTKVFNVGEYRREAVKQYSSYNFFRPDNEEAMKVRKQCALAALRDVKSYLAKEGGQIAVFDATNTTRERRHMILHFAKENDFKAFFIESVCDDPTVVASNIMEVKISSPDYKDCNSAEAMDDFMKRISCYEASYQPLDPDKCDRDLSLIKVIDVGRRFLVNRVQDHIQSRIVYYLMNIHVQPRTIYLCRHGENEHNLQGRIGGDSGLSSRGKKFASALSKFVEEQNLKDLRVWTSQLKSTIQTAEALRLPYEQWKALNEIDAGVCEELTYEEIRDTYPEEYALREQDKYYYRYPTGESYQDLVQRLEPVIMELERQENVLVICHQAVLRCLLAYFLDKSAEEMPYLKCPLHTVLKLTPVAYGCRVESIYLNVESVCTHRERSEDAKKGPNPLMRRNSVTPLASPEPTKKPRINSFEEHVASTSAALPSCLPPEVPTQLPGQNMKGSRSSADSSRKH

| IC50 [1] [nM] | IC50 [2] [nM] | SMILES | IC50 (PFKFB3; [3]) [nM] | IC50 (PFKFB3; ref Boutard et al., read-out: IC50 enzymatic PFKFB3 inhibition (reported)) [nM] |
| --- | --- | --- | --- | --- |
|  |  | CC(C)OC(=O)c1cccc(-c2cc(S(=O)(=O)Nc3ccc(C(=O)O)c(O)c3)sc2Cl)c1 [compound 1] | 150 |  |
|  |  | Cc1c(S(=O)(=O)Nc2cccc(-c3nnn[nH]3)c2)oc2ccc(C(C)C)cc12 [compound 2] | 80 |  |
|  |  | Cc1noc(C)c1Cn1nc(C#N)c2cc(Oc3ccc(NC(=O)[C@@H]4CCCN4)cc3)ccc21 [compound 3] | 3 |  |
| 2300 ± 800 | 6.7 ± 2.3 | CN1CCCC(NC(=O)c2cncc(Nc3cc(-c4ccc5ccn(C)c5c4)c4nccnc4c3)c2)C1 (centres unmarked) [compound 4] |  | 2 |
| 5300 ± 1400 | 12.5 ± 4.5 | Cn1ccc2ccc(-c3cc(Nc4cncc(C(=O)NC5CCCN(C(=O)CCC(C(=O)O)N6CCN(CC(=O)O)CCN(CC(=O)O)CCN(CC(=O)O)CC6)C5)c4)cc4nccnc34)cc21 (centres unmarked) [compound 5, 2,2′,2′′-(10-(1-carboxy-4-(3-(5-((8-(1-methyl-1H-indol-6-yl)quinoxalin-6-yl)amino)nicotinamido)piperidin-1-yl)-4-oxobutyl)-1,4,7,10-tetraazacyclododecane-1,4,7-triyl) triacetic acid] |  |  |
